From patent US7485416B2, “Screening methods for the identification of agents that inhibit SIRT1 Tat deacetylase activity” (The Regents of the University of California, priority 2003, dated 2009)

What was measured:
HIV LTR luciferase = experiment: Nuclear microinjection of synthetic Tat or AcTat with HIV LTR luciferase reporter into HeLa cells; type: cell-based; conditions: for basal HIV promoter activity / transcriptional activity of AcTat (transactivation of the HIV promoter): TSA 400 nM or nicotinamide 5 mM, four hours (FIG. 6C)
Protocol: Subconfluent MEFs (70%) were grown on Cellocate coverslips (Eppendorf, Westbury, N.Y.), and nuclear microinjections were performed at room temperature with an automated injection system (Eppendorf Micromanipulator 5171 together with Eppendorf Transjector 5246). Samples were prepared as a 20 μl injection mix containing the HIV LTR luciferase reporter or 5×UAS luciferase (each 100 ng/μl), RSV-Tat (10 ng/μl) or Gal4-VP16 (50 ng/μl), CMV-CyclinT1 (100 ng/μl), CMV-SIRT1 (100 or 300 ng/μl) together with CMV-GFP (50 ng/μl) in sterile water. Six hours after microinjection, cells were examined under a Nikon Eclipse TE300 inverted fluorescent microscope to determine the number of GFP-positive cells, washed in cold phosphate buffer, and stored at −70° C. for luciferase assays (Promega). In HeLa cells, synthetic Tat or AcTat proteins (each 30 or 100 ng/μl) were co-injected with the wildtype or mutant HIV LTR luciferase reporters (each 100 ng/μl) together with CMV-GFP (50 ng/μl) and harvested four hours after injection. Cells were treated immediately after injection with 5,6-dichlorobenzimidazole riboside (DRB; 10 or 50 μM; Sigma), TSA (400 nM), or nicotinamide (5 mM). Microinjections in siRNA-treated cells were performed 48 hours after siRNA transfection.

SIRT1 = target: T1, SIRT1 (Homo sapiens, UniProt Q96EB6); experiment: In vitro Tat deacetylation assay with immunoprecipitated SIRT1; type: biochemical; conditions: AcTat, NAD+ 1 mM; nicotinamide 5 mM, TSA 400 nM; western blot (FIG. 2B)
T1 construct: made in house; host or cells: HEK 293 cells (transient transfection, anti-FLAG M2 agarose immunoprecipitation)
T1 sequence (Q96EB6 1-747): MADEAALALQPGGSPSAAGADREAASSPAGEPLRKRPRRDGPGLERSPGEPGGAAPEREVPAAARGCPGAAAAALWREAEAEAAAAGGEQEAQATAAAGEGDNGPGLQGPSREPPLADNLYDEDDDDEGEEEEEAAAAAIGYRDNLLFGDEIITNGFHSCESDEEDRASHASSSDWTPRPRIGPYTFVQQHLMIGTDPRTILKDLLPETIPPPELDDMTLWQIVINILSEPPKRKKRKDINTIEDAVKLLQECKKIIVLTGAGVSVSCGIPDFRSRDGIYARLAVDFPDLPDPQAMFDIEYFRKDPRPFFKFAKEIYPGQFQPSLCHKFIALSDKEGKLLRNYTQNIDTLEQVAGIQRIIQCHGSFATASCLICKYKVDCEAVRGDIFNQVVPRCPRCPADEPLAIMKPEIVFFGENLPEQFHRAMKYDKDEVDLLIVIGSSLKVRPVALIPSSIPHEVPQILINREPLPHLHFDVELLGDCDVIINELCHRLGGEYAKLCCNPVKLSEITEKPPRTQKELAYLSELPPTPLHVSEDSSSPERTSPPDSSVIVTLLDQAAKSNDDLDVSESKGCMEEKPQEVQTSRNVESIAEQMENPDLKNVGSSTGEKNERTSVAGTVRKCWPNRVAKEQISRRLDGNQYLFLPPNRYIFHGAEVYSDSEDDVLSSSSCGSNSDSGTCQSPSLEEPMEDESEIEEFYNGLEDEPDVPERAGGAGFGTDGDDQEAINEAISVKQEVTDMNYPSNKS
Protocol: Human SIRT1-7 FLAG-tagged plasmids were transfected in 293 cells with lipofectamine reagent (Invitrogen). Cells were lysed 24 hours after transfection with lysis buffer (50 mM Tris-Hcl, pH 7.5, 0.5 mM EDTA, 0.5% NP40, 150 mM NaCl) in the presence of protease inhibitors (Roche Molecular Biochemicals, Indianapolis, Ind.). Equal amounts of total proteins were immunoprecipitated with α-FLAG (anti-FLAG antibody) coupled to M2 agarose beads (Sigma, St Louis, Mo.), for 2 hours at 4° C. Immunoprecipitated material was washed twice with immunoprecipitation (IP) buffer and one time with SIRT deacetylation buffer (50 mM Tris-HCl pH 9, 4 mM MgCl2, 0.2 mM DTT). The beads were resuspended in 100 μl SIRT deacetylation buffer containing 1 μg synthetic Tat (72 amino acids) carrying an N-terminal biotin label and an acetyl group at position 50. Kaehlcke et al. (2003), supra. Reactions containing TSA (400 nM, WACO Bioproducts, Richmond, Va.) or nicotinamide (5 mM, Sigma) were preincubated for 10 min at room temperature. […] Reactions were stopped by the addition of SDS loading buffer, boiled, and after brief centrifugation, analyzed by western blotting with rabbit α-AcTat antibodies (Kaehlcke et al. (2003), supra) or horseradish peroxidase-conjugated streptavidin (Jackson Immunoresearch Laboratories, West Grove, Pa.). SIRT1-7 proteins were detected with polyclonal α-FLAG antibodies (Sigma).

RSV LTR = experiment: RSV luciferase control in transfected HeLa cells; type: cell-based; conditions: 1 μM (FIG. 7C right)
Protocol: (§1) In co-transfection experiments, human CMV-SIRT1 or CMV-SIRT1H363Y (600 ng) was co-transfected into HeLa cells plated in six-well plates with the HIV LTR luciferase reporter (200 ng) or the LTRΔNF-kB-luciferase reporter (200 ng) and increasing amounts of RSV-Tat (0 ng, 2 ng, 20 ng, and 200 ng) using the lipofectamine reagents (Invitrogen). In the control experiment, RSV-Tat was replaced by RSV luciferase (200 ng), and the HIV LTR luciferase construct was replaced by the HIV LTR CAT reporter. […] The RSV-luciferase construct was used as described above. […] Cells were harvested 8 hr later and processed for luciferase assays.

p53 = p53 acetylation in cells; type: cell-based; conditions: 1 μM
[1] = test system: Tat-dependent HIV transcription; experiment: Tat transactivation of HIV LTR luciferase reporter in transfected HeLa cells treated with HR73; type: cell-based; conditions: at ~1 μM, 8 hours, dose-dependent (FIG. 7C left)
Protocol: as §1

[2] = test system: HIV-R7/E-/GFP (HIVNL4-3 with GFP in place of nef); experiment: Single-cycle HIV infection of Jurkat T cells, GFP expression by flow cytometry; type: cell-based; conditions: 1 μM, 36 hours (FIG. 7D left)
Protocol: (§2) The HIV molecular clone (HIV-R7/E^−/GFP) containing the GFP open reading frame in place of the nef gene and a frameshift mutation in the env gene as well as the method to generate pseudotyped viral particles with VSV-G was previously described. Jordan et al. (2003) Embo J 22: 1868-1877. The number of infective particles per ml was established by infecting 3×10^5 Jurkat cells with different amounts of viral suspension. The titer of the viral stock was measured by flow cytometry analysis of GFP expression 48 hours after infection. The pHR′-EF-1α/GFP construct is a minimal nonreplicative HIV-1 genome containing a heterologous promoter (EF-1α) driving GFP expression. Naldini et al. (1996) Science 272: 263-267. […]. Zufferey et al. (1997) Nat Biotechnol 15: 871-875. All vectors for the production of HIV-based lentiviral vectors were provided by D. Trono, University of Geneva, Switzerland. Jurkat T cells were incubated overnight with HIV-R7/E^−/GFP or pHR′-EF-1α/GFP viral particles at a theoretical multiplicity of infection (m.o.i.) of 0.5 in 24-well plates. […] Viral infection was monitored 36 hours later by flow cytometry analysis using a Calibur FACScan (Becton Dickinson).

pHR'-EF-1α/GFP = experiment: HIV-based lentiviral vector expressing GFP from EF-1α promoter in Jurkat T cells (control); type: cell-based; conditions: 1 μM, 36 hours (FIG. 7D right)
Protocol: as §2

SMILES | basal HIV promoter activity (HIV LTR luciferase) | transcriptional activity of AcTat (transactivation of the HIV promoter) (HIV LTR luciferase) | effect on SIRT1-mediated deacetylation of Tat (SIRT1) | also measured
OC[C@H]1O[C@@H](n2cnc3cc(Cl)c(Cl)cc32)[C@H](O)[C@@H]1O [DRB, 5,6-dichlorobenzimidazole riboside] | – | – | – | transactivation by Tat and AcTat (HIV LTR luciferase; Tat or AcTat 30 ng/μl, DRB 10 or 50 μM, four hours (FIG. 6B)): inhibited in a dose-dependent manner
NC(=O)c1cccnc1 [nicotinamide] | stimulating | blocked | completely inhibited | –
CC(/C=C/C(=O)NO)=C\[C@@H](C)C(=O)c1ccc(N(C)C)cc1 [TSA] | enhanced | enhanced | had no effect | –
O=C1Oc2ccc3cc(Br)ccc3c2CC1c1ccccc1 (stereo not drawn) [HR73] | – | – | – | activity of the RSV LTR (RSV LTR): did not suppress; acetylation of p53 (p53): induced hyperacetylation; suppression of Tat-dependent HIV transcription [1]: 3 fold; reduction of HIV gene expression as measured by GFP expression [2]: 5 fold; GFP expression from the EF-1α promoter (pHR'-EF-1α/GFP): not affected
